Reference: patent US20240335431A1, “1-H-PYRROLO[2,3-c]PYRIDINE COMPOUNDS” (Acerta Pharma B.V., priority 2023, published 2024)
Like-named read-outs stand apart in the source and are kept apart here.

Experiments:
[1] = Human hepatocyte intrinsic clearance assay; assay type: in vitro ADME; conditions: human hepatocytes
Description: Human hepatocytes (LiverPool™ 10-Donor Human hepatocytes (Mixed Gender, PEG-free, Product No. S01205, 5 million cells per vial) were obtained from BioreclamationIVT. DMSO was sourced from Solarbio S&T Co Ltd. Leibovitz's L-15 Medium, Williams' Medium E, GlutaMAX™-1 (100×), HEPES, DPBS (10×) and Human Recombinant Insulin Solution were purchased from Gibco. Isotonic Percoll Solution was purchased from GE Healthcare. Fetal Bovine Serum (FBS) was purchased from Corning.
10 mM dexamethasone stock solution was prepared by dissolving 3.9 mg dexamethasone in 1 mL of DMSO. An Isotonic Percoll Solution was prepared by dilution of Percoll with DPBS (10×). 15 mL of Isotonic Percoll Solution (90% Percoll/10% DPBS) was added to 31.25 mL William's E medium containing 500 mL of GlutaMAX™-1 (100×), 750 mL of 1M HEPES, 2.5 mL of 5% FBS, 50 mL of 4 mg/mL Human Recombinant Insulin Solution and 5 mL of the 10 mM dexamethasone stock.
2 mL of 10 mM DMSO stock solutions of test compound were added to 198 mL acetonitrile to produce 100 mmol/L concentration.
The human hepatocyte vial was thawed at 37° C. in a waterbath. Once thawed, contents were poured into a 50 mL conical tube and centrifuged at 100 g for 10 minutes. The thawing medium was poured out and 4 mL L-15 medium was added. The tube was gently shaken to resuspend the hepatocytes and cells were counted with an appropriate cell counter. 247.5 mL of the hepatocyte suspension was transferred into each well of the plate and pre-warmed at 600 rpm and 50° C. to enable the temperature to rise to 37° C.
2.5 mL of the […] test compound solution was added to initiate the reaction (final concentration […]) and incubated at 37° C. with shaking at 900 rpm. At 0.5, 5, 15, 30, 45, 60, 80, 100 and 120 minutes, 20 mL was taken into a quenching solution of acetonitrile containing internal standards. The mix was vortexed at 800 rpm for 2 minutes followed by centrifugation for 20 minutes at 4000 rpm at 4° C. 40 mL of supernatant was transferred into a 96 well analysis plate containing 160 mL of water in each well. The analysis plate was shaken at 100 rpm for 2 minutes prior to analysis by LC-MS/MS.
Peak areas were determined from extracted ion chromatograms. Percent parent remaining was calculated from peak area of test compound. The slope value, k, was determined by linear regression of the natural logarithm of percent parent remaining versus incubation time.
The in vitro intrinsic clearance (in vitro CLint in mL/min/10^6 cells) was determined from the slope value using the following equation: […]
where V is the incubation volume (0.25 mL) and N is the number of hepatocytes per well (0.25×10^6 cells).

HEL cells = test: Proliferation assay, HEL control cell line (CellTiter-Glo, 7 days); assay type: cell-based, human
In short: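 Cells were seeded at line-specific low densities for linear growth, exposed to 3.16-fold serial compound dilutions at 0.1% DMSO, and incubated 7 days at 37 °C, 5% CO2. Viability was read by CellTiter-Glo 2.0 luminescence; IC50 came from one-site fits of % inhibition, normalized between DMSO-treated cells (100%) and a day-0 plate (0%).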

| Compound | HH CLint [1] [μl/min/1E6] | IC50 (HEL cells; Homo sapiens, HEL, 168 h) [µM] | IC50 (HEL cells) [µM] |
| --- | --- | --- | --- |
| O=C(c1cn(-c2ccc(F)cc2-c2cncnc2C2CC2)c2cnccc12)C1CCN(C(=O)[C@H]2N[C@@H]3CC[C@H]2C3)CC1 [Example 40, (1-((1R,3S,4S)-2-Azabicyclo[2.2.1]heptane-3-carbonyl)piperidin-4-yl)(1-(2-(4-cyclopropylpyrimidin-5-yl)-4-fluorophenyl)-1H-pyrrolo[2,3-c]pyridin-3-yl)methanone] | <1.0 | > 10 |  |
| CCN(C(=O)c1cc(F)ccc1-n1cc(C(=O)C2CCN(C(=O)[C@H]3N[C@@H]4CC[C@H]3C4)CC2)c2ccncc21)C(C)C [Example 31, 2-(3-(1-((1R,3S,4S)-2-Azabicyclo[2.2.1]heptane-3-carbonyl)piperidine-4-carbonyl)-1H-pyrrolo[2,3-c]pyridin-1-yl)-N-ethyl-5-fluoro-N-isopropylbenzamide] | <1.0 | > 10 |  |
| COCCN(C)CCC[C@H](C(C)C)N1CCC(C(=O)c2cn(-c3ccc(F)cc3C(=O)N(C(C)C)C(C)C)c3cnccc23)CC1 (racemic) [Example 23, rac-(R)-5-Fluoro-N,N-diisopropyl-2-(3-(1-(6-((2-methoxyethyl)(methyl)amino)-2-methylhexan-3-yl)piperidine-4-carbonyl)-1H-pyrrolo[2,3-c]pyridin-1-yl)benzamide] | 3.8 | > 10 |  |
| CC(C)N(C(=O)c1cc(F)ccc1-n1cc(C(=O)C2CCN(C(=O)[C@H]3NC4CCC3CC4)CC2)c2ccncc21)C(C)C [Example 20, (S)-2-(3-(1-(2-Azabicyclo[2.2.2]octane-3-carbonyl)piperidine-4-carbonyl)-1H-pyrrolo[2,3-c]pyridin-1-yl)-5-fluoro-N,N-diisopropylbenzamide] | <1.0 | > 10 |  |
| CC(C)c1ncccc1-c1cc(F)ccc1-n1cc(C(=O)C2CCN(C(=O)[C@H]3N[C@@H]4CC[C@H]3C4)CC2)c2ccncc21 [Example 38, (1-((1R,3S,4S)-2-Azabicyclo[2.2.1]heptane-3-carbonyl)piperidin-4-yl)(1-(4-fluoro-2-(2-isopropylpyridin-3-yl)phenyl)-1H-pyrrolo[2,3-c]pyridin-3-yl)methanone] | <1.0 | > 10 |  |
| CCN(C(=O)c1cc(F)ccc1-n1c(C)c(C(=O)C2CCN(C(=O)[C@@H]3CCC4(CC4)N3)CC2)c2ccncc21)C(C)C (single isomer, unassigned) [Example 49-2] | 6.0 |  | > 10 |
| Cc1c(C(=O)C2CCN(C(=O)[C@H]3NC[C@@H]4C[C@@H]43)CC2)c2ccncc2n1-c1ccc(F)cc1C(=O)N(C(C)C)[C@H](C)C(F)(F)F (single isomer, unassigned) [Example 57-1] | 3.2 | > 10 |  |
| CC(C)c1ncsc1-c1cc(F)ccc1-n1cc(C(=O)C2CN(C(=O)[C@H]3N[C@@H]4CC[C@H]3C4)C2)c2ccncc21.O=CO [Example 12, (1-((1R,3S,4S)-2-Azabicyclo[2.2.1]heptane-3-carbonyl)azetidin-3-yl)(1-(4-fluoro-2-(4-isopropylthiazol-5-yl)phenyl)-1H-pyrrolo[2,3-c]pyridin-3-yl)methanone 1·formic acid] | 3.9 | > 10 |  |
| CC(C)N(C(=O)c1cc(F)ccc1-n1cc(C(=O)C2CN(C(=O)[C@H]3N[C@@H]4CC[C@H]3C4)C2)c2ccncc21)C(C)C [Example 5, 2-(3-(1-((1R,3S,4S)-2-Azabicyclo[2.2.1]heptane-3-carbonyl)azetidine-3-carbonyl)-1H-pyrrolo[2,3-c]pyridin-1-yl)-5-fluoro-N,N-diisopropylbenzamide] | <1.0 | > 10 |  |
| CC(C)N(C(=O)c1cc(F)ccc1-n1cc(C(=O)[C@@H]2CCN(C[C@H]3CC[C@H](NS(C)(=O)=O)CC3)C2)c2ccncc21)C(C)C [Example 4, 5-Fluoro-N,N-diisopropyl-2-(3-((R)-1-(((1r,4R)-4-(methylsulfonamido)-cyclohexyl)methyl)pyrrolidine-3-carbonyl)-1H-pyrrolo[2,3-c]pyridin-1-yl)benzamide] | 2.3 | > 10 |  |
| Cc1c(C(=O)C2CCN(C(=O)[C@H]3NC[C@@H]4C[C@@H]43)CC2)c2ccncc2n1-c1ccc(F)cc1C(=O)N(C(C)C)C(C)C (single isomer, unassigned) [Example 55-1] | 4.4 | > 10 |  |
| CC(C)c1cnccc1-c1cc(F)ccc1-n1cc(C(=O)C2CN(C(=O)[C@H]3N[C@@H]4CC[C@H]3C4)C2)c2ccncc21.O=CO [Example 11, (1-((1R,3S,4S)-2-Azabicyclo[2.2.1]heptane-3-carbonyl)azetidin-3-yl)(1-(4-fluoro-2-(3-isopropylpyridin-4-yl)phenyl)-1H-pyrrolo[2,3-c]pyridin-3-yl)methanone 1·formic acid] | <1.0 | > 10 |  |
| CCN(C(=O)c1cc(F)ccc1-n1cc(C(=O)C2CN(C(=O)[C@H]3NC4CCC3CC4)C2)c2ccncc21)C(C)C [Example 9, (S)-2-(3-(1-(2-Azabicyclo[2.2.2]octane-3-carbonyl)azetidine-3-carbonyl)-1H-pyrrolo[2,3-c]pyridin-1-yl)-N-ethyl-5-fluoro-N-isopropylbenzamide] | 3.8 | > 10 |  |
| CC(C)N(C(=O)c1cc(F)ccc1-n1cc(C(=O)C2CN(C(=O)[C@H]3N[C@@H]4CC[C@H]3C4)C2)c2ccnc(F)c21)C(C)C [Example 15, 2-(3-(1-((1R,3S,4S)-2-Azabicyclo[2.2.1]heptane-3-carbonyl)azetidine-3-carbonyl)-7-fluoro-1H-pyrrolo[2,3-c]pyridin-1-yl)-5-fluoro-N,N-diisopropylbenzamide] | 2.9 | > 10 |  |
| CCN(C(=O)c1cc(F)ccc1-n1c(C)c(C(=O)[C@@H]2CCN(C(=O)[C@@H]3CCC4(CC4)N3)[C@@H](C)C2)c2ccncc21)C(C)C (single isomer, unassigned) [Example 52-2, N-Ethyl-5-fluoro-N-isopropyl-2-(2-methyl-3-((2R*,4S*)-2-methyl-1-((S)-4-azaspiro[2.4]heptane-5-carbonyl)piperidine-4-carbonyl)-1H-pyrrolo[2,3-c]pyridin-1-yl)benzamide] | 3.5 | > 10 |  |
| Cc1c(C(=O)[C@@H]2CCN(C(=O)[C@H]3NC[C@@H]4C[C@@H]43)[C@@H](C)C2)c2ccncc2n1-c1ccc(F)cc1C(=O)N(CC(F)(F)F)C(C)C (single isomer, unassigned) [Example 53-3, 2-(3-((2R*,4S*)-1-((1S,2S,5R)-3-Azabicyclo[3.1.0]hexane-2-carbonyl)-2-methylpiperidine-4-carbonyl)-2-methyl-1H-pyrrolo[2,3-c]pyridin-1-yl)-5-fluoro-N-isopropyl-N-(2,2,2-trifluoroethyl)benzamide] | 3.3 |  | > 10 |
| Cc1c(C(=O)C2CCN(C(=O)[C@@H]3CCC4(CC4)N3)CC2)c2ccncc2n1-c1ccc(F)cc1C(=O)N1[C@H](C)COC[C@H]1C (single isomer, unassigned) [Example 58-2] | 1.9 |  | > 10 |
| CC(C)N(C(=O)c1cc(F)ccc1-n1cc(C(=O)C2CN(C(=O)[C@H]3N[C@H]4C[C@@H]3[C@@H](F)C4)C2)c2ccncc21)C(C)C [Example 7, 5-Fluoro-2-(3-(1-((1S,3S,4S,5S)-5-fluoro-2-azabicyclo[2.2.1]heptane-3-carbonyl)azetidine-3-carbonyl)-1H-pyrrolo[2,3-c]pyridin-1-yl)-N,N-diisopropylbenzamide] | 3.2 | > 10 |  |
| CC(C)c1ncccc1-c1cc(F)ccc1-n1cc(C(=O)C2CN(C(=O)[C@H]3N[C@@H]4CC[C@H]3C4)C2)c2ccncc21 [Example 10, (1-((1R,3S,4S)-2-Azabicyclo[2.2.1]heptane-3-carbonyl)azetidin-3-yl)(1-(4-fluoro-2-(2-isopropylpyridin-3-yl)phenyl)-1H-pyrrolo[2,3-c]pyridin-3-yl)methanone] | <2.2 | > 10 |  |
